Data published in patent US11884932B2, “In vitro production of medial ganglionic eminence precursor cells” (The Regents of the University of California, priority 2013, dated 2024).

Columns and labels:
SCID mouse cortex = assay: Tumor incidence after injection of hESC-derived NKX2.1-GFP+ cells into newborn SCID mouse cortex; format: in vivo
Experimental: Excess medium was removed from sorted cell pellets to create concentrated cell suspensions of 1000 cells/nl. Cells were loaded into a beveled glass micropipette (Wiretrol 5 ul, Drummond Scientific Company) mounted on a stereotactic hydraulic injector. P2 CB.17-SCID pups (Charles River) were anesthetized through hypothermia and positioned in a clay head mold on the injector platform. 10-100,000 cells per injection site were delivered transcranially into the right cerebral cortex using the following coordinates: 0.9 mm from the midline (sagittal sinus), and 2.6 mm from lambda. The depth of injection was 0.45 mm from the skin surface. All transplantation experiments adhered to approved UCSF Institutional Animal Care and Use Committee protocols.
Initially, day 35 monolayer cultures were sorted for NKX2.1-GFP+, without PSANCAM selection, and injected into newborn SCID mouse cortex. However, within 4 months, injected mouse brains (12/12 mice) contained tumor-like overgrowths at the injection site and/or at the pial surface near the injection tract (data not shown). These were not pluripotent cell-derived teratomas; OCT4+ cells or polarized neuroepithelial rosettes were not found. […] But, focal growths (˜1 focus/2500 plated cells, n=3) were occasionally detected in extended co-cultures, consistent with tumor formation in vivo. […]

[1] = tested on: HES3 NKX2.1-GFP hESC line with i12b-RFP; assay: Flow cytometry of NKX2.1-GFP and i12b-RFP double positive cells; format: cell-based, human; conditions: B27+5F cultures treated with DAPT
Text: The intergenic DLX½i12b (422) enhancer driving the mCherry RFP reporter gene (i12b-RFP) was delivered into the HES3 NKX2.1-GFP hESC line using lentivirus, and two stable cell lines were generated (#5 and #10) as confirmed by genomic DNA PCR for mCherry. (FIG. 22, F).
The modified lines were differentiated using the B27±5F method, and i12b-RFP expression was detected after three weeks of differentiation, along with NKX2.1. (FIG. 22, G). i12b-RFP+ cells in EBs co-expressed GABAergic neuron marker DLX2 and neuronal marker TUJ1. (FIGS. 22, H and I).
Flow cytometry analysis confirmed that many cells derived with the B27+5F method co-expressed both NKX2.1-GFP and i12b-RFP (FIG. 22, J).

## C[C@H](NC(=O)Cc1cc(F)cc(F)c1)C(=O)N[C@H](C(=O)OC(C)(C)C)c1ccccc1 [DAPT]
SCID mouse cortex; brief addition of DAPT prior to injection, low-density monolayer culture, 3/9 mice
  tumor incidence: 33%
SCID mouse cortex; day 35 cultures pretreated with DAPT and FACS-sorted for both NKX2.1-GFP+ and PSA-NCAM+ cells
  in vivo tumor incidence: 0/6
[1]
  double positive (NKX2.1-GFP and i12b-RFP) population of MGE derived interneurons: marked increase
